Patent US11040967B2, “TYK2 inhibitors, uses, and methods for production thereof” (Nimbus Lakshmi, Inc., priority 2017, dated 2021)

Assays:
[1] = Solid form stability of Compound 1 mesylate forms; assay type: physicochemical
[2] = Dissolution Assay in Fasted Simulated Gastric Fluid; assay type: physicochemical; conditions: Fasted Simulated Gastric Fluid (FaSSGF), 37° C.
Description: The dissolution bath was filled with 900 mL of media for testing, the bath temperature held at 37° C., the rotation rate of the apparatus was 50 rpm, the draw point for the sampling probe was set exactly halfway between the surface of the media and the surface of the disc. The test article (0.4 g) was compressed into a disc using a Woods apparatus. The sampling time points were 10, 30, 60, 90, 120, 150 & 180. The samples were analysed by HPLC for concentration against a sample preparation of known concentration (ca. 0.5 mg/ml). Dissolution rate was derived from the curve of concentration against time.

CS(=O)(=O)O.O=C1NCc2nc(-c3c(F)cccc3F)cc(Nc3ccc(C(=O)N4CCCC4)cc3)c21 [Form V]
solid form stability ([1]; upon grinding): transition to Form I

CS(=O)(=O)O.O=C1NCc2nc(-c3c(F)cccc3F)cc(Nc3ccc(C(=O)N4CCCC4)cc3)c21 [Form IV]
solid form stability ([1]; ambient conditions): stable at ambient conditions

O=C1NCc2nc(-c3c(F)cccc3F)cc(Nc3ccc(C(=O)N4CCOCC4)cc3)c21 [Compound 9]
dissolution rate [2]: 21.2 μg/cm^2/min

O=C1NCc2nc(-c3c(F)cccc3F)cc(Nc3ccc(C(=O)N4CCCC4)cc3)c21 [Compound 1]
dissolution rate [2]: 57.5 μg/cm^2/min

CS(=O)(=O)O.O=C1NCc2nc(-c3c(F)cccc3F)cc(Nc3ccc(C(=O)N4CCCC4)cc3)c21 [Form III]
solid form stability ([1]; upon drying under ambient conditions): transition to Form IV
